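Each compound was tested at five concentrations against cells in 96-well plates for 48 hours. GI50 marks 50% less growth. TGI is the concentration that stops growth completely.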
Key:
Experiment in all cases: inhibition of tumour cell growth, NCI panel, 48 h
SF-295 CNS = tested on: SF-295 CNS
NCI-H460 lung = tested on: NCI-H460 lung
CCRF-CEM leukemia = tested on: CCRF-CEM leukemia
SW-620 colon = tested on: SW-620 colon
DU-145 prostate = tested on: DU-145 prostate
HOP-62 NSCLC = tested on: HOP-62 NSCLC
UACC-62 melanoma = tested on: UACC-62 melanoma
SR leukemia = tested on: SR leukemia
SF-268 CNS = tested on: SF-268 CNS
OVCAR-8 ovarian = tested on: OVCAR-8 ovarian
SK-OV-3 ovarian = tested on: SK-OV-3 ovarian
NCI-H226 lung = tested on: NCI-H226 lung
OVCAR-4 ovarian = tested on: OVCAR-4 ovarian
HCT-15 colon = tested on: HCT-15 colon
SN12C renal = tested on: SN12C renal
BT-549 breast = tested on: BT-549 breast
LOX IMVI melanoma = tested on: LOX IMVI melanoma
TK-10 renal = tested on: TK-10 renal
EKVX NSCLC = tested on: EKVX NSCLC
KM12 colon = tested on: KM12 colon
CAKI-1 renal = tested on: CAKI-1 renal
A549 NSCLC = tested on: A549 NSCLC
SNB-75 CNS = tested on: SNB-75 CNS
MALME-3M melanoma = tested on: MALME-3M melanoma
SF-539 CNS = tested on: SF-539 CNS
T-47D breast = tested on: T-47D breast
M14 melanoma = tested on: M14 melanoma
K-562 leukemia = tested on: K-562 leukemia
RXF 393 renal = tested on: RXF 393 renal

## O=C(NNc1nc2cc(F)c(F)cc2n2c(CN3CC4CNCC4C3)ccc12)c1cnccn1 (configuration not stated)
SF-295 CNS
  GI50: 0.44 µM
  TGI: 11.2 µM
NCI-H460 lung
  GI50: 0.463 µM
  TGI: 4.72 µM
CCRF-CEM leukemia
  GI50: 0.706 µM
  TGI: 27.5 µM
SW-620 colon
  GI50: 1.17 µM
  TGI: 15.2 µM
DU-145 prostate
  GI50: 1.3 µM
  TGI: 11.8 µM
HOP-62 NSCLC
  GI50: 0.459 µM
  TGI: 5.23 µM
UACC-62 melanoma
  GI50: 1.19 µM
  TGI: 6.28 µM
SR leukemia
  GI50: 0.481 µM
  TGI: 20.5 µM
SF-268 CNS
  GI50: 0.962 µM
  TGI: 10.8 µM
OVCAR-8 ovarian
  GI50: 0.547 µM
  TGI: 7.83 µM
SK-OV-3 ovarian
  GI50: 0.811 µM
  TGI: 9.06 µM
NCI-H226 lung
  GI50: 1.23 µM
  TGI: 14.5 µM
OVCAR-4 ovarian
  GI50: 0.995 µM
  TGI: 20.6 µM
HCT-15 colon
  GI50: 0.363 µM
  TGI: 16.2 µM
SN12C renal
  GI50: 2.06 µM
  TGI: 11.4 µM
BT-549 breast
  GI50: 2.42 µM
  TGI: 13.8 µM
LOX IMVI melanoma
  GI50: 0.608 µM
  TGI: 6.7 µM
TK-10 renal
  GI50: 0.455 µM
  TGI: 17 µM
EKVX NSCLC
  GI50: 0.732 µM
  TGI: 13.8 µM
KM12 colon
  GI50: 0.74 µM
  TGI: 12.7 µM
CAKI-1 renal
  GI50: 0.415 µM
  TGI: 9.69 µM
A549 NSCLC
  GI50: 0.851 µM
  TGI: 10.6 µM
SNB-75 CNS
  GI50: 2.16 µM
  TGI: 14.1 µM
MALME-3M melanoma
  GI50: 1.75 µM
  TGI: 9.7 µM
SF-539 CNS
  GI50: 1.07 µM
  TGI: 4.42 µM
T-47D breast
  GI50: 3.3 µM
  TGI: 22.9 µM
M14 melanoma
  GI50: 0.611 µM
  TGI: 12.3 µM
K-562 leukemia
  GI50: 0.785 µM
  TGI: > 100 µM
RXF 393 renal
  GI50: 1.27 µM

From PubChem BioAssay (NCI)
